Data as given in the NIST ThermoML archive (doi:10.1016/j.jct.2008.12.005).
± gives the expanded uncertainty stated by the source.

Assay: activity coefficient (dimensionless); of the first substance listed, at infinite dilution; xn = mol fraction of the nth substance listed
Settings: 101 kPa, Liquid, Chromatography, x1 = 0

Row | SMILES | activity coefficient (298.15 K) | activity coefficient (308.15 K) | activity coefficient (318.15 K) | activity coefficient (328.15 K) | activity coefficient (338.15 K) | activity coefficient (348.15 K) | activity coefficient (358.15 K) | activity coefficient (368.15 K)
1 | CCCCCCCCC [nonane] + CC[S+](CC)CC.O=S(=O)([N-]S(=O)(=O)C(F)(F)F)C(F)(F)F | 87.2 ± 6 | 77.6 ± 5.3 | 68.6 ± 4.7 | 61.8 ± 4.2 | 55.5 ± 3.8 | 50.5 ± 3.5 | 46 ± 3.1 | 42.4 ± 2.9
2 | CCCCC [pentane] + CC[S+](CC)CC.O=S(=O)([N-]S(=O)(=O)C(F)(F)F)C(F)(F)F | 21.6 ± 1.5 | 19.9 ± 1.4 | 18.3 ± 1.3 | 16.8 ± 1.1 | 15.6 ± 1.1 | 14.6 ± 1 | 13.5 ± 0.9 | 12.7 ± 0.9
3 | C1CCCC1 [cyclopentane] + CC[S+](CC)CC.O=S(=O)([N-]S(=O)(=O)C(F)(F)F)C(F)(F)F | 10.8 ± 0.7 | 10.1 ± 0.7 | 9.31 ± 0.64 | 8.72 ± 0.59 | 8.17 ± 0.56 | 7.7 ± 0.53 | 7.29 ± 0.5 | 6.94 ± 0.47
4 | C1CCCCC1 [cyclohexane] + CC[S+](CC)CC.O=S(=O)([N-]S(=O)(=O)C(F)(F)F)C(F)(F)F | 16.1 ± 1.1 | 14.7 ± 1 | 13.5 ± 0.9 | 12.4 ± 0.8 | 11.6 ± 0.8 | 10.7 ± 0.7 | 10 ± 0.7 | 9.43 ± 0.64
5 | CCO [ethanol] + CC[S+](CC)CC.O=S(=O)([N-]S(=O)(=O)C(F)(F)F)C(F)(F)F | 2.15 ± 0.15 | 1.95 ± 0.13 | 1.77 ± 0.12 | 1.61 ± 0.11 | 1.48 ± 0.1 | 1.36 ± 0.09 | 1.27 ± 0.08 | 1.18 ± 0.08
6 | CCCCCCC [heptane] + CC[S+](CC)CC.O=S(=O)([N-]S(=O)(=O)C(F)(F)F)C(F)(F)F | 40.4 ± 2.8 | 36.9 ± 2.5 | 33.5 ± 2.3 | 30.5 ± 2.1 | 28.1 ± 1.9 | 26 ± 1.8 | 24.1 ± 1.6 | 22.5 ± 1.5
7 | C1CCOC1 [tetrahydrofuran] + CC[S+](CC)CC.O=S(=O)([N-]S(=O)(=O)C(F)(F)F)C(F)(F)F | 0.788 ± 0.051 | 0.803 ± 0.052 | 0.82 ± 0.053 | 0.834 ± 0.054 | 0.846 ± 0.054 | 0.859 ± 0.055 | 0.872 ± 0.056 | 0.885 ± 0.056
8 | Cc1ccccc1 [toluene] + CC[S+](CC)CC.O=S(=O)([N-]S(=O)(=O)C(F)(F)F)C(F)(F)F | 1.54 ± 0.1 | 1.56 ± 0.1 | 1.58 ± 0.1 | 1.6 ± 0.11 | 1.62 ± 0.11 | 1.63 ± 0.11 | 1.65 ± 0.11 | 1.66 ± 0.11
9 | C1CCCCCCC1 [cyclooctane] + CC[S+](CC)CC.O=S(=O)([N-]S(=O)(=O)C(F)(F)F)C(F)(F)F | 30.3 ± 2.1 | 27.2 ± 1.9 | 24.5 ± 1.7 | 22.4 ± 1.5 | 20.4 ± 1.4 | 18.7 ± 1.3 | 17.2 ± 1.2 | 16 ± 1.1
10 | C=CCCCCC [1-heptene] + CC[S+](CC)CC.O=S(=O)([N-]S(=O)(=O)C(F)(F)F)C(F)(F)F | 18.3 ± 1.3 | 17.2 ± 1.2 | 16.1 ± 1.1 | 15.2 ± 1 | 14.4 ± 1 | 13.7 ± 0.9 | 12.9 ± 0.9 | 12.4 ± 0.8
11 | C1CCCCCC1 [cycloheptane] + CC[S+](CC)CC.O=S(=O)([N-]S(=O)(=O)C(F)(F)F)C(F)(F)F | 21.7 ± 1.5 | 19.8 ± 1.4 | 18 ± 1.2 | 16.5 ± 1.1 | 15.2 ± 1 | 14.1 ± 1 | 13.1 ± 0.9 | 12.2 ± 0.8
12 | COC(C)(C)C [2-methoxy-2-methylpropane] + CC[S+](CC)CC.O=S(=O)([N-]S(=O)(=O)C(F)(F)F)C(F)(F)F | 2.92 ± 0.2 | 2.94 ± 0.2 | 2.96 ± 0.2 | 2.98 ± 0.2 | 3 ± 0.2 | 3.02 ± 0.21 | 3.03 ± 0.21 | 3.05 ± 0.21
13 | C#CCCCCC [1-heptyne] + CC[S+](CC)CC.O=S(=O)([N-]S(=O)(=O)C(F)(F)F)C(F)(F)F | 5.34 ± 0.36 | 5.28 ± 0.36 | 5.21 ± 0.36 | 5.14 ± 0.35 | 5.08 ± 0.35 | 5.04 ± 0.34 | 4.98 ± 0.34 | 4.93 ± 0.34
14 | CCc1ccccc1 [ethylbenzene] + CC[S+](CC)CC.O=S(=O)([N-]S(=O)(=O)C(F)(F)F)C(F)(F)F | 2.42 ± 0.16 | 2.43 ± 0.17 | 2.43 ± 0.17 | 2.44 ± 0.17 | 2.44 ± 0.17 | 2.45 ± 0.17 | 2.45 ± 0.17 | 2.45 ± 0.17
15 | CCCCCCCCCC [decane] + CC[S+](CC)CC.O=S(=O)([N-]S(=O)(=O)C(F)(F)F)C(F)(F)F | 131 ± 9 | 114 ± 8 | 101 ± 7 | 89.6 ± 6.1 | 80 ± 5.5 | 72.5 ± 5 | 65.8 ± 4.5 | 59.7 ± 4.1
16 | C#CCCC [1-pentyne] + CC[S+](CC)CC.O=S(=O)([N-]S(=O)(=O)C(F)(F)F)C(F)(F)F | 2.52 ± 0.17 | 2.52 ± 0.17 | 2.53 ± 0.17 | 2.54 ± 0.17 | 2.54 ± 0.17 | 2.55 ± 0.17 | 2.55 ± 0.17 | 2.55 ± 0.17
17 | CO [methanol] + CC[S+](CC)CC.O=S(=O)([N-]S(=O)(=O)C(F)(F)F)C(F)(F)F | 1.62 ± 0.11 | 1.48 ± 0.1 | 1.35 ± 0.09 | 1.25 ± 0.08 | 1.15 ± 0.07 | 1.07 ± 0.07 | 1 ± 0.06 | 0.935 ± 0.059
18 | C=CCCCC [hex-1-ene] + CC[S+](CC)CC.O=S(=O)([N-]S(=O)(=O)C(F)(F)F)C(F)(F)F | 12.5 ± 0.9 | 11.8 ± 0.8 | 11.3 ± 0.8 | 10.6 ± 0.7 | 10.1 ± 0.7 | 9.69 ± 0.66 | 9.3 ± 0.63 | 8.94 ± 0.61
19 | CCCCCCCC [octane] + CC[S+](CC)CC.O=S(=O)([N-]S(=O)(=O)C(F)(F)F)C(F)(F)F | 59.6 ± 4.1 | 53.3 ± 3.7 | 47.9 ± 3.3 | 43.6 ± 3 | 39.6 ± 2.7 | 36.3 ± 2.5 | 33.5 ± 2.3 | 30.8 ± 2.1
20 | c1ccsc1 [thiophene] + CC[S+](CC)CC.O=S(=O)([N-]S(=O)(=O)C(F)(F)F)C(F)(F)F | 0.926 ± 0.059 | 0.935 ± 0.059 | 0.943 ± 0.059 | 0.951 ± 0.06 | 0.958 ± 0.06 | 0.965 ± 0.061 | 0.971 ± 0.061 | 0.977 ± 0.061
21 | C#CCCCC [1-hexyne] + CC[S+](CC)CC.O=S(=O)([N-]S(=O)(=O)C(F)(F)F)C(F)(F)F | 3.63 ± 0.25 | 3.62 ± 0.25 | 3.6 ± 0.25 | 3.58 ± 0.24 | 3.57 ± 0.24 | 3.56 ± 0.24 | 3.54 ± 0.24 | 3.53 ± 0.24
22 | O [water] + CC[S+](CC)CC.O=S(=O)([N-]S(=O)(=O)C(F)(F)F)C(F)(F)F |  | 3.91 ± 0.27 | 3.39 ± 0.23 | 2.97 ± 0.2 | 2.63 ± 0.18 | 2.33 ± 0.16 | 2.08 ± 0.14 | 1.88 ± 0.13
23 | c1ccccc1 [benzene] + CC[S+](CC)CC.O=S(=O)([N-]S(=O)(=O)C(F)(F)F)C(F)(F)F | 1.08 ± 0.07 | 1.1 ± 0.07 | 1.11 ± 0.07 | 1.12 ± 0.07 | 1.13 ± 0.07 | 1.13 ± 0.07 | 1.14 ± 0.07 | 1.15 ± 0.07
24 | CCCCO [butan-1-ol] + CC[S+](CC)CC.O=S(=O)([N-]S(=O)(=O)C(F)(F)F)C(F)(F)F |  | 3.32 ± 0.23 | 2.96 ± 0.2 | 2.66 ± 0.18 | 2.41 ± 0.16 | 2.2 ± 0.15 | 2 ± 0.14 | 1.84 ± 0.12
25 | C=CCCC [1-pentene] + CC[S+](CC)CC.O=S(=O)([N-]S(=O)(=O)C(F)(F)F)C(F)(F)F | 8.81 ± 0.6 | 8.41 ± 0.57 | 8.06 ± 0.55 | 7.72 ± 0.53 | 7.4 ± 0.5 | 7.17 ± 0.49 | 6.89 ± 0.47 | 6.69 ± 0.46
26 | Cc1ccccc1C [1,2-dimethylbenzene] + CC[S+](CC)CC.O=S(=O)([N-]S(=O)(=O)C(F)(F)F)C(F)(F)F |  | 2.05 ± 0.14 | 2.07 ± 0.14 | 2.09 ± 0.14 | 2.1 ± 0.14 | 2.12 ± 0.14 | 2.13 ± 0.14 | 2.15 ± 0.15
27 | CCCCCC [hexane] + CC[S+](CC)CC.O=S(=O)([N-]S(=O)(=O)C(F)(F)F)C(F)(F)F | 28.6 ± 2 | 26.2 ± 1.8 | 24 ± 1.6 | 22.1 ± 1.5 | 20.7 ± 1.4 | 19.2 ± 1.3 | 18 ± 1.2 | 16.9 ± 1.2
